# Experimental data as given in patent publication US20180078576A1, “SULPHATED XYLANS FOR TREATMENT OR PROPHYLAXIS OF RESPIRATORY DISEASES” (Paradigm Biopharmaceuticals Limited, priority 2007, published 2018).
# Columns and labels:
# IL-5 = molecular target: T1, IL-5 (Homo sapiens, UniProt P05113); assay: IL-5 dependent Ba/F-IL-5 cell proliferation (luciferase); assay type: cell-based; conditions: dose-response, FIG. 4
# T1 construct: made in house; host or cells: baculovirus expression system (from the general materials paragraph)
# T1 sequence (P05113 20-134): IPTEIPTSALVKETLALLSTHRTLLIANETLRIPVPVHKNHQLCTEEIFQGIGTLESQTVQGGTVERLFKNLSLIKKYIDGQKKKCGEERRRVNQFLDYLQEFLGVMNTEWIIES
# Procedure: PPS inhibited the proliferation of an IL-5 responsive cell line. This occurs at very low doses and is not due to a toxic effect of the PPS as other similarly sulfated polysaccharides have no affect in this assay. These experiments are performed with the IL-5 responsive cells, Ba/F-IL-5. The Ba/F-IL-5 cells were derived from the Ba/F3 cell line.
# The Ba/F3 cell line was transformed to be both IL-5 dependent and to express luciferase by co-transfection of the cells with pGL3 control vector (Promega, USA) and pEE6 hcmv-IL-5Rα. The control vector, pGL3 expresses a modified luciferase under the direct control of the SV40 promoter and enhancer, but contains no selectable marker. To prepare pEE6 hcmv-hIL-5Rα a full length human IL-5 receptor α chain (hIL-5R-α) was cloned by RT PCR from HL60 cells. The preparation of the Ba/F-IL-5 cells has been described by Coombe et al, Journal of Immunological Methods 215: 145-150, 1998. […]
# After transfection, positive transfectants are selected in 3 μg/ml puromycin. […] The cells are counted with a Coulter Z2 Particle Counter and Size Analyzer (Coulter Electronics, England) and routinely 1.6×10^4 cells are added to microplate wells that contain either no IL-5 (negative control) or various dilutions of IL-5. When the effect of PPS, or other sulfated polysaccharides is to be measured, the wells also contain various concentrations of these molecules. […]
# human MCP-1 = human MCP-1 (Homo sapiens, UniProt P13500); assay: MCP-1 induced migration of THP-1 cells (chemotaxis); assay type: cell-based; conditions: 50 μg/ml, MCP-1 10 ng/ml
# Procedure: These cells were originally derived from the peripheral blood of a patient with acute monocytic leukaemia. The assay was very similar to that described above. The chemotaxis assays were performed in 96-well Costar chemotaxis plates and human MCP-1 (+/−inhibitor) was added to the bottom chamber and the THP-1 cells in RPMI/1% FCS were added to the top chamber and the plate was incubated at 37° C. for 2.5 hour to allow cells to move from the top chamber into the bottom. The number of cells migrating into the bottom chamber was quantified by labeling with AQUEOUS ONE (30 μl/well) for 4 hours before absorbance at 490 run is read. MCP-1 was used at a final concentration of 10 ng/ml and the inhibitors were the sulfated xylan pentasaccharide (10 and 50 μg/ml) and PPS (10 and 50 μg/ml). In these experiments both PPS and the sulfated xylan pentasaccharide were effective, but PPS was a better inhibitor (FIG. 18) as at 50 μg/ml PPS inhibited cell movement by 89% whereas at the same concentration the sulfated xylan pentasaccharide cell movement by 53%.
# human MIP-1α = molecular target: T2, human MIP-1α (Homo sapiens, UniProt P10147); assay: MIP-1α induced migration of DMSO treated U937 cells (chemotaxis); assay type: cell-based; conditions: MIP-1α 40 ng/ml
# T2 sequence (P10147 24-92): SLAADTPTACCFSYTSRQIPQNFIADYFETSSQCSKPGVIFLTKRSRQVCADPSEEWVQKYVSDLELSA
# Procedure: DMSO treated U937 cells were used to examine the cell migration in response to MIP-1α. U937 cells are a promonocytic human cell line originally derived from the pleural effusion of a patient with histiocytic lymphoma. These cells were treated with DMSO (1.2%) for 4 days before being used in chemotaxis experiments. The chemotaxis assays were performed in 96-well Costar chemotaxis plates and human MIP-1α (+/−inhibitor) was added to the bottom chamber and the DMSO treated U937 cells in RPMI/HEPES were added to the top chamber and the plate was incubated at 37° C. for 3 hour to allow cells to move from the top chamber into the bottom. The number of cells migrating into the bottom chamber was quantified by labeling with AQUEOUS ONE (30 μl/well) for 1 hour before absorbance at 490 nm is read. MIP-1α was used at a final concentration of 40 ng/ml and the inhibitors were the sulfated xylan pentasaccharide (10 and 50 μg/ml) and PPS (10 and 50 μg/ml). It is clear from these experiments that both PPS and the sulfated xylan pentasaccharide inhibited MIP-1α stimulated cell movement.
# [1] = relative to heparin; cited from earlier work
# human MCP-1, sequence (P13500 24-99): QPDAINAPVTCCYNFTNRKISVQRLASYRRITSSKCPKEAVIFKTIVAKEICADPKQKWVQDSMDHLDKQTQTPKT
substance,measurement,setting,value
Pentosan polysulfate [PPS],Inhibition of IL-5 dependent Ba/F-IL-5 cell proliferation (in words),IL-5,effective inhibitor
same,Inhibition of cell movement induced by MCP-1,human MCP-1,89%
same,Inhibition of MIP-1α stimulated cell movement,human MIP-1α; 10 μg/ml,48%
same,Inhibition of MIP-1α stimulated cell movement,human MIP-1α; 50 μg/ml,69%
same,Anticoagulant activity as fraction of that of heparin,[1],about 1/15
